# Measured values published in patent US7517840B2, “Optimized perfumery for rinse-off products” (Givaudan Fragrances Corporation, priority 2005, dated 2009).
# Several values for one entry are separate records, joined by “and”; a condition that tells them apart may be missing. Identical values can stand only once. Like-named read-outs stand apart in the source and are kept apart here.
# What was measured:
# [1] = cited from earlier work; for Odor Detection Threshold: Table 24, Floral fragrance; for exp ODT water: Booleans database
# [2] = GC-MS headspace release profile of perfume in shampoo, 1/100 dilution in water; type: physicochemical; conditions: Tropical Fruit Perfume
# Description: Experimental Procedure: Individual odorant to be tested was added to 20 g of shampoo formulation (see formula below in Table 4) at 0.1%.
# A 10 gram sample of formulation and fragrance was added to an empty 1000 ml pyrex beaker. This beaker was then filled with 1000 ml of 120 F tap water. Beaker with diluted shampoo sample was then immediately placed into a semi-enclosed plexiglass chamber.
# Headspace Sampling: Once beaker was placed into chamber a Carboxan SPME field fiber was held at the top-side opening of the chamber over the beaker containing the sample. […] […] Top of plexiglass chamber was held open for entire 5 minutes of headspace sampling.
Compound,GC Abundance ([2]; 30 seconds),GC Abundance ([2]; 40 seconds),GC Abundance ([2]; 50 seconds),also measured
CC(=O)OC1CC2CC1C1CC=CC21 (stereo not shown),,,,Odor Detection Threshold [1]: 50 ppb or less
C=CC(C)(O)CCC=C(C)CC (mixture of isomers) [ETHYL LINALOOL],10000,10000,10000,GC Abundance ([2]; 20 seconds): 5000
CC=Cc1ccc(O)c(OC)c1 [1-Hydroxy-2-methoxy-4-propenylbenzene],,,,exp ODT water [1]: 30-40 ppb
CCCCCCCC=O [1-Octanal],,,,exp ODT water [1]: 30 ppb
Cc1ccc(C(C)C)c(O)c1 [5-Methyl-2-isopropylphenol],,,,exp ODT water [1]: 400 ppb
"CC(C)=CCCC(C)CCCC(C)C=O (stereo not shown) [ADOXAL, 2,6,10-Trimethyl-9-undecenal]",,300,3000,
CCCCCC1CCC(=O)O1 (stereo not shown) [ALDEHYDE C-18],2000,4000,4000,GC Abundance ([2]; 20 seconds): 2000
C=CCOC(=O)CCC1CCCCC1 [ALLYL CYCLOHEXYL PROPIONATE],,7000,10000,
C=CCOC(=O)CCCCCC [ALLYL HEPTOATE],10000,12000,12000,GC Abundance ([2]; 20 seconds): 4000
CC1(C)CCC[C@]2(C)[C@H]3CCO[C@]3(C)CC[C@@H]12 [AMBROXAN],,,1000,
CC/C(=C\CC1CC=C(C)C1(C)C)CO (stereo not shown) [BACDANOL],,100,5000,
CC(=O)OCc1ccccc1 [BENZYL ACETATE],17000,18000,18000,GC Abundance ([2]; 20 seconds): 12000
OCc1ccccc1 [BENZYL ALCOHOL],,50,100,
CCC(=O)OCc1ccccc1 [BENZYL PROPIONATE],6000,6000,6000,GC Abundance ([2]; 20 seconds): 2000
"C/C=C/C(=O)C1=C(C)CCCC1(C)C [BETA DAMASCONE FAB, β-damascone]",,,,"Odor Detection Threshold [1]: 50 ppb or less; ODT ([1]; Table 30, berry note): 50 ppb or less"
CCCCOC(C)=O [Butyl acetate],,,,exp ODT water [1]: 44-88 ppb
Cc1ccc2c(c1)OCC(=O)CO2 [CALONE],,,1000,
CC/C=C\CCO [CIS-3-HEXEN-1-OL],14000,14000,14000,GC Abundance ([2]; 20 seconds): 14000
CC/C=C\CCOC(C)=O [CIS-3-HEXENYL ACETATE],14000,14000,14000,GC Abundance ([2]; 20 seconds): 5000
"CC(C)=CCCC(C)CCO (stereo not shown) [CITRONELLOL AJ, FCC, CITRONELLOL]",7000,7000,7000,GC Abundance ([2]; 20 seconds): 7000
"CC=CC(=O)C1=C(C)C=CCC1(C)C [DAMASCENONE, 1-(2,6,6-Trimethylcyclohexa-1,3-dienyl)-2-buten-1-one]",,,1000,exp ODT water [1]: 0.002 ppb

Compound,GC Abundance ([2]; 30 seconds),GC Abundance ([2]; 40 seconds),GC Abundance ([2]; 50 seconds),also measured
CCC(C)(O)CCC=C(C)C (stereo not shown) [DIHYDROLINALOOL],3000,3000,3000,GC Abundance ([2]; 20 seconds): 3000
C=CC(C)CCCC(C)(C)O (stereo not shown) [DIHYDROMYRCENOL],15000,15000,15000,GC Abundance ([2]; 10 seconds): 500; GC Abundance ([2]; 20 seconds): 15000
CC(=O)OC(C)(C)Cc1ccccc1 [DIMETHYL BENZYL CARBINYL ACETATE],2000,8000,8000,
"CCCC(=O)OCC [ETHYL BUTYRATE, Ethyl butyrate]",2800,2000,800,GC Abundance ([2]; 10 seconds): 2800; GC Abundance ([2]; 20 seconds): 2800; exp ODT water [1]: 1 ppb
CCOC(=O)C1OC1c1ccccc1 (stereo not shown) [ETHYL PHENYL GLYCIDATE],,,,"ODT ([1]; Table 30, berry note): 50 ppb or less"
O=C1CCCCCCCCCCCC(=O)OCCO1 [ETHYLENE BRASSYLATE],,,20,
O=C1CCCCCCCCCCCCCCO1 [EXALTOLIDE TOTAL],,,50,
"CCOC(=O)C1OC1(C)c1ccccc1 (stereo not shown) [Ethyl 2,3-epoxy-3-methyl-3-phenylpropionate]",,,,exp ODT water [1]: 25 ppb
CC(C)c1cccc(C(C)CC=O)c1 (stereo not shown) [FLORHYDRAL],,9000,10000,Odor Detection Threshold [1]: 50 ppb or less
CC(C)CC1CC(C)(O)CCO1 (stereo not shown) [FLOROL],,10000,15000,
CCOC(=O)CC1(C)OCCO1 [FRUCTONE],5000,5000,5000,"GC Abundance ([2]; 20 seconds): 3000; ODT ([1]; Table 17, apple note compounds): 50 ppb or less"
"CCCCCCC1CCC(=O)O1 (stereo not shown) [GAMMA-DECALACTONE, 5-Hexyldihydro-2(3H)-furanone]",,4000,7000,
CCCCCC1C(=O)CCC1CC(=O)OC (stereo not shown) [HEDIONE],,,4000,Odor Detection Threshold [1]: 50 ppb or less
CC(C=O)Cc1ccc2c(c1)OCO2 (stereo not shown) [HELIONAL],,500,5000,
"CCCCCCC(C=O)=Cc1ccccc1 [HEXYL CINNAMIC ALDEHYDE, hexyl cinnamic aldehyde]",,2000,9000,
C=C(C)C1CC=C(C)C(=O)C1 (stereo not shown) [I-1-Methyl-4-isopropenyl-6-cyclohexen-2-one],,,,exp ODT water [1]: 50 ppb
"CC(=O)/C=C/C1C(C)=CCCC1(C)C (stereo not drawn) [IONONE ALPHA, alpha ionone]",,,,exp ODT water [1]: 0.4-10 ppb
"CC(=O)C=CC1=C(C)CCCC1(C)C [IONONE BETA PURE, 4-(2,6,6-Trimethyl-1-cyclohexen-1-yl)-3-buten-2-one]",2000,10000,18000,exp ODT water [1]: 4-6 ppb; Odor Detection Threshold [1]: 50 ppb or less
CC/C=C\CCOC(=O)OC [LIFFAROME],3000,3000,3000,GC Abundance ([2]; 20 seconds): 3000
"C=CC(C)(O)CCC=C(C)C (stereo not shown) [LINALOOL, linalool]",18000,18000,18000,GC Abundance ([2]; 10 seconds): 500; GC Abundance ([2]; 20 seconds): 18000; Odor Detection Threshold [1]: 50 ppb or less
CC1OC(C)C2Cc3ccccc3C2O1 (stereo not shown) [MAGNOLAN/CORPS 719],,1000,3000,

Compound,GC Abundance ([2]; 30 seconds),GC Abundance ([2]; 40 seconds),GC Abundance ([2]; 50 seconds),also measured
CCCCCCCCCC=CC=O [MANDARIN ALDEHYDE],,,,"ODT ([1]; Table 32, citrus note): 50 ppb or less"
"CCCC(C)C(=O)OCC (stereo not shown) [MANZANATE, Ethyl 2-methylpentanoate]",4000,3000,1500,"GC Abundance ([2]; 10 seconds): 1000; GC Abundance ([2]; 20 seconds): 4000; exp ODT water [1]: 0.0030 ppb; ODT ([1]; Table 17, apple note compounds): 50 ppb or less; odor detection threshold in water ([1]; text b188): 0.003 parts per billion"
"CC(C)=CCCC(C)C=O (stereo not shown) [MELONAL, 2,6-Dimethyl-5-heptenal]",,,,"exp ODT water [1]: 16 ppb; ODT ([1]; Table 26, cucumber-melon note): 50 ppb or less; odor detection threshold values in water [1]: 16 ppb"
"COC(=O)c1ccccc1N [METHYL AN[…], METHYL ANTHRANILATE]",,,,Odor Detection Threshold [1]: 50 ppb or less
COC(=O)c1c(C)cc(O)c(C)c1O [METHYL ATRATATE],,,50,
CCCCCOC(C)=O [Pentyl Acetate],,,,exp ODT water [1]: 43 ppb
CCCCCOC(=O)CCC [Pentyl butyrate],,,,exp ODT water [1]: 44-87 ppb
"CC(C)=CC1CC(C)CCO1 (stereo not drawn) [ROSE OXIDE (HIGH CIS), Tetrahydro-4-methyl-2-(2-methylpropen-1-yl)pyran]",14000,14000,14000,GC Abundance ([2]; 20 seconds): 10000; exp ODT water [1]: 0.5 ppb
CC1=CCC(CCC(C)C(C)O)C1(C)C (stereo not shown) [SANDALORE],,,2000,
CC1=C(O)C(=O)C(C)O1 (stereo not shown) [STRAWBERRY FURANONE],,,,"ODT ([1]; Table 30, berry note): 50 ppb or less"
CC(=O)OC(C)(C)C1CC=C(C)CC1 (stereo not shown) [TERPINYL ACETATE],1000,9000,9000,
CC1=CC(C)C(C=O)CC1 (stereo not shown) [TRIPLAL],14000,10000,6000,GC Abundance ([2]; 10 seconds): 1000; GC Abundance ([2]; 20 seconds): 14000
"CCC=C(C)C(O)CCCCC (stereo not shown) [UNDECAVERTOL, 4-Methyl-3-decen-5-ol]",,10000,10000,
"COc1cc(C=O)ccc1O [VANILLIN NF, 4-Hydroxy-3-methoxybenzaldehyde]",,,,exp ODT water [1]: 25-58 ppb and 20-200 ppb
CC(=O)OC1CCC(C(C)(C)C)CC1 (stereo not shown) [VERTENEX HC],2000,8000,10000,
"CC=CC(=O)C1C(C)=CCCC1(C)C (stereo not drawn) [alpha-DAMASCONE, α-1-(2,6,6-Trimethyl-2-cyclohexen-1-yl)-2-buten-1-one]",,1000,5000,"exp ODT water [1]: 1.5 ppb; ODT ([1]; Table 17, apple note compounds): 50 ppb or less"
"CCC(=O)OC/C=C(\C)CCC=C(C)C [trans-3,7-Dimethyl-2,6-octadien-1-yl propanoate]",,,,exp ODT water [1]: 10 ppb
C/C=C/C(=O)C1C(C)C=CCC1(C)C (stereo not shown) [δ-DAMASCONE],,,,"ODT ([1]; Table 28, fig note): 50 ppb or less"
VERTOFIX COEUR,,,50,
